In ChEMBL document CHEMBL1128005, “Piperidine-ether based hNK1 antagonists 1: Determination of the relative and absolute stereochemical requirements” (Bioorg Med Chem Lett, 1994):

The compounds below were run against Substance-P receptor (Homo sapiens, UniProt P25103) (assay: Compound was tested for the displacement of […] Substance P from hNK1 receptor in CHO cells).
Assay type: cell-based

Substance-P receptor, sequence (P25103 whole entry): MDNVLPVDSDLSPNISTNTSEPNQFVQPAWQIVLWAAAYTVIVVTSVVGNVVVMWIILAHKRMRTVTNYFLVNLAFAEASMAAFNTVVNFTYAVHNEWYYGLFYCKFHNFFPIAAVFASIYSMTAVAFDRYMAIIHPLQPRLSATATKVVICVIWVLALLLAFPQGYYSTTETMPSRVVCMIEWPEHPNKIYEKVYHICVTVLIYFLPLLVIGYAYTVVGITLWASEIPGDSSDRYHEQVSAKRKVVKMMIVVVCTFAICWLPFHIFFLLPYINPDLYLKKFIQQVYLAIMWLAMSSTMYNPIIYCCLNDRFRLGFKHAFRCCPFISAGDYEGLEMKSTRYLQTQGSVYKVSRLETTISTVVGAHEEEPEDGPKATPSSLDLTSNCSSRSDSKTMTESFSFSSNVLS

| SMILES | IC50 [nM] |
| --- | --- |
| FC(F)(F)c1cc(CO[C@H]2CCCN[C@@H]2c2ccccc2)cc(C(F)(F)F)c1 | 300 |
| FC(F)(F)c1cc(CO[C@@H]2CCCN[C@@H]2c2ccccc2)cc(C(F)(F)F)c1 (stereo in doubt) | 350 |
| FC(F)(F)c1cc(CO[C@@H]2CCCN[C@@H]2c2ccccc2)cc(C(F)(F)F)c1 (stereo in doubt; (+/-)2) | 1.4 |
| FC(F)(F)c1cc(CO[C@H]2CCN[C@H]2c2ccccc2)cc(C(F)(F)F)c1 (racemic) | 7 |
